Source: US11578074B2, “Nitrogenous heterocyclic compound, preparation method, intermediate, composition, and application” (SHANGHAI PHARMACEUTICALS HOLDING CO., LTD., priority 2017, dated 2023)

Experiment: In vivo pharmacokinetic study in rats
Settings: male, SD, rat, plasma, oral, 3 mg/kg intravenous, 6 mg/kg intragastric
Description: Five male SD rats, weighing 180-220 g (provided by Shanghai Xipuerbikai Experimental Animal Co., Ltd, certificate No. 20130016005408). The rats were fasted for feed but not water for 12-16 hours before the experiment. Two rats were intravenously injected with 3 mg/kg (which was dissolved by the ratio 0.9% physiological saline:PEG 400=7:3, to give a clear solution with a concentration of 1 mg/mL and a dosage volume of 3 mL/kg) of the final product of Embodiment 45. Blood samples were collected before administration and at 2, 5, 15, 30, 60, 90, 120, 240, 360, 480, 600 and 1440 minutes after administration respectively; three rats were intragastricly administrated with 6 mg/kg (0.5% CMC-Na was added and grounded into a uniform suspension with a concentration of 0.75 mg/mL and a dosage volume of 8 mL/kg) of the final product of Embodiment 45. Blood samples were collected before administration and at 5, 15, 30, 60, 90, 120, 240, 360, 480, 600 and 1440 minutes after administration respectively.
0.4 mL of blood was taken from fundus venous plexus of mice and rats into a heparinized centrifuge tube (10 μL heparin sodium solution/tube). […] After vortexing for 10 minutes and centrifuging at 6000 g and 4° C. for 10 minutes, the supernatant was diluted with mobile phase in a 96-well plate, and the drug concentration in plasma was determined by UPLC/MS-MS.

SMILES: CCOc1cc2ncnc(Nc3ccc(Oc4ccn5ncnc5c4)c(C)c3)c2cc1NC(=O)/C(F)=C/[C@H]1CCCN1C [Final product of Embodiment 45]
- bioavailability: 71.3%
